Among the data in the supplement of paper PMC10307832 are relative viability values, retold here.

What all share (test): relative viability (nuclei count vs DMSO), 5 days (fraction); higher = more cells survive
Compound in the test “BI-D1870 + Navitoclax”: CC(C)CCN1c2nc(Nc3cc(F)c(O)c(F)c3)ncc2N(C)C(=O)C1C [BI-D1870] + CC1(C)CCC(c2ccc(Cl)cc2)=C(CN2CCN(c3ccc(C(=O)NS(=O)(=O)c4ccc(N[C@H](CCN5CCOCC5)CSc5ccccc5)c(S(=O)(=O)C(F)(F)F)c4)cc3)CC2)C1 [Navitoclax] (partner 0.5 µM)
In a few lines:
(§1)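 Lung cancer cell lines, seeded in 1536-well plates, were treated the following day by pin tool with a single drug or with five library-drug doses (not always all listed) in √10 steps on top of a fixed anchor-drug dose. Cells were fixed and nuclei stained in one step after 5 days, and nuclei were counted. Relative viability is the nuclei count for treated wells divided by that for vehicle wells, reported as medians of duplicate plates.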

Compound in the test “BI-D1870 + Bortezomib”: CC(C)CCN1c2nc(Nc3cc(F)c(O)c(F)c3)ncc2N(C)C(=O)C1C [BI-D1870] + CC(C)C[C@H](NC(=O)[C@H](Cc1ccccc1)NC(=O)c1cnccn1)B(O)O [Bortezomib] (partner 0.002 µM)
In a few lines: as §1

Compound in the test “BI-D1870 + Pemetrexed”: CC(C)CCN1c2nc(Nc3cc(F)c(O)c(F)c3)ncc2N(C)C(=O)C1C [BI-D1870] + Nc1nc2[nH]cc(CCc3ccc(C(=O)N[C@@H](CCC(=O)O)C(=O)O)cc3)c2c(=O)[nH]1 [Pemetrexed] (partner 0.2 µM)
In a few lines:
as §1

Compound in the test “Zebularine + Phenformin”: O=c1ncccn1[C@@H]1O[C@H](CO)[C@@H](O)[C@H]1O [Zebularine] + N=C(N)NC(=N)NCCc1ccccc1 [Phenformin] (partner 250 µM)
In a few lines: as §1

Regarding NCI-H2405, the relative viability with BI-D1870 + Navitoclax (first compound 0.04 µM) was determined as 1.17; in the test with BI-D1870 + Navitoclax (first compound 0.1265 µM), 0.774; with BI-D1870 + Navitoclax (first compound 0.4 µM), 0.977; in the test with BI-D1870 + Navitoclax (first compound 1.265 µM), 0.844; in the test with BI-D1870 + Navitoclax (first compound 4 µM) it was 0.671; in the test with BI-D1870 + Bortezomib (first compound 0.04 µM), 1.07. Besides, the relative viability turned out to be 0.89 in the test with BI-D1870 + Bortezomib (first compound 0.1265 µM); 0.959 with BI-D1870 + Bortezomib (first compound 0.4 µM); 1.02 with BI-D1870 + Bortezomib (first compound 1.265 µM); 1.02 with BI-D1870 + Bortezomib (first compound 4 µM); 1.2 in the test with BI-D1870 + Pemetrexed (first compound 0.04 µM); 1.01 with BI-D1870 + Pemetrexed (first compound 0.1265 µM). The relative viability with BI-D1870 + Pemetrexed (first compound 0.4 µM) was found to be 1; with BI-D1870 + Pemetrexed (first compound 1.265 µM), 1.04; in the test with BI-D1870 + Pemetrexed (first compound 4 µM), 0.796; with Zebularine + Phenformin (first compound 1 µM), 0.425; in the test with Zebularine + Phenformin (first compound 3.162 µM) it was 0.378; with Zebularine + Phenformin (first compound 10 µM) it was 0.352. The relative viability was 0.435 with Zebularine + Phenformin (first compound 31.62 µM) and 0.335 with Zebularine + Phenformin (first compound 100 µM).
In the case of NCI-H3122, the relative viability with BI-D1870 + Navitoclax (first compound 0.04 µM) amounted to 1; with BI-D1870 + Navitoclax (first compound 0.1265 µM), 0.927; with BI-D1870 + Navitoclax (first compound 0.4 µM), 1.1; with BI-D1870 + Navitoclax (first compound 1.265 µM) it was 0.993; in the test with BI-D1870 + Navitoclax (first compound 4 µM), 1.04; with BI-D1870 + Bortezomib (first compound 0.04 µM), 1. Further, the relative viability in the test with BI-D1870 + Bortezomib (first compound 0.1265 µM) amounted to 0.932; with BI-D1870 + Bortezomib (first compound 0.4 µM), 1.05; in the test with BI-D1870 + Bortezomib (first compound 1.265 µM), 1.03; with BI-D1870 + Bortezomib (first compound 4 µM) it was 0.996; in the test with BI-D1870 + Pemetrexed (first compound 0.04 µM), 0.187; in the test with BI-D1870 + Pemetrexed (first compound 0.1265 µM), 0.194. The relative viability was determined as 0.203 in the test with BI-D1870 + Pemetrexed (first compound 0.4 µM); 0.222 in the test with BI-D1870 + Pemetrexed (first compound 1.265 µM); 0.202 with BI-D1870 + Pemetrexed (first compound 4 µM); 0.434 with Zebularine + Phenformin (first compound 1 µM); 0.389 in the test with Zebularine + Phenformin (first compound 3.162 µM); 0.332 with Zebularine + Phenformin (first compound 10 µM). The relative viability with Zebularine + Phenformin (first compound 31.62 µM) was found to be 0.385; with Zebularine + Phenformin (first compound 100 µM), 0.352.
PC-3 [JPC-3]: the relative viability in the test with BI-D1870 + Navitoclax (first compound 0.04 µM) came to 0.812; with BI-D1870 + Navitoclax (first compound 0.1265 µM), 0.739; with BI-D1870 + Navitoclax (first compound 0.4 µM), 0.743; in the test with BI-D1870 + Navitoclax (first compound 1.265 µM), 0.809; in the test with BI-D1870 + Navitoclax (first compound 4 µM), 0.734; with BI-D1870 + Bortezomib (first compound 0.04 µM) it was 0.74. In addition, the relative viability amounted to 0.859 with BI-D1870 + Bortezomib (first compound 0.1265 µM); 0.825 with BI-D1870 + Bortezomib (first compound 0.4 µM); 0.889 with BI-D1870 + Bortezomib (first compound 1.265 µM); 0.829 with BI-D1870 + Bortezomib (first compound 4 µM); 1.1 with BI-D1870 + Pemetrexed (first compound 0.04 µM); 1.1 with BI-D1870 + Pemetrexed (first compound 0.1265 µM). Further, the relative viability with BI-D1870 + Pemetrexed (first compound 0.4 µM) stood at 1.01; with BI-D1870 + Pemetrexed (first compound 1.265 µM) it was 0.806; in the test with BI-D1870 + Pemetrexed (first compound 4 µM) it was 0.479; in the test with Zebularine + Phenformin (first compound 1 µM), 0.461; in the test with Zebularine + Phenformin (first compound 3.162 µM) it was 0.486; with Zebularine + Phenformin (first compound 10 µM) it was 0.437. The figures for the relative viability in the test with Zebularine + Phenformin (first compound 31.62 µM) and in the test with Zebularine + Phenformin (first compound 100 µM) were 0.46 and 0.396, respectively.
In the case of PC-14, the relative viability in the test with BI-D1870 + Navitoclax (first compound 0.04 µM) was found to be 1.08; with BI-D1870 + Navitoclax (first compound 0.1265 µM) it was 0.961; with BI-D1870 + Navitoclax (first compound 0.4 µM), 0.991; with BI-D1870 + Navitoclax (first compound 1.265 µM), 1.07; in the test with BI-D1870 + Navitoclax (first compound 4 µM), 0.928; with BI-D1870 + Bortezomib (first compound 0.04 µM) it was 0.95. Moreover, the relative viability is 0.909 in the test with BI-D1870 + Bortezomib (first compound 0.1265 µM); 0.809 with BI-D1870 + Bortezomib (first compound 0.4 µM); 0.963 with BI-D1870 + Bortezomib (first compound 1.265 µM); 0.559 in the test with BI-D1870 + Bortezomib (first compound 4 µM); 0.124 with BI-D1870 + Pemetrexed (first compound 0.04 µM); 0.129 with BI-D1870 + Pemetrexed (first compound 0.1265 µM). Further, the relative viability with BI-D1870 + Pemetrexed (first compound 0.4 µM) came to 0.141; in the test with BI-D1870 + Pemetrexed (first compound 1.265 µM), 0.133; in the test with BI-D1870 + Pemetrexed (first compound 4 µM), 0.124; in the test with Zebularine + Phenformin (first compound 1 µM), 0.805; in the test with Zebularine + Phenformin (first compound 3.162 µM) it was 0.28; in the test with Zebularine + Phenformin (first compound 10 µM) it was 0.167. The relative viability with Zebularine + Phenformin (first compound 31.62 µM) amounted to 0.124; in the test with Zebularine + Phenformin (first compound 100 µM), 0.0723.
As to RERF-LC-KJ, the relative viability worked out at 0.917 with BI-D1870 + Navitoclax (first compound 0.04 µM); 0.632 with BI-D1870 + Navitoclax (first compound 0.1265 µM); 0.979 with BI-D1870 + Navitoclax (first compound 0.4 µM); 1.02 with BI-D1870 + Navitoclax (first compound 1.265 µM); 0.888 in the test with BI-D1870 + Navitoclax (first compound 4 µM); 1.12 in the test with BI-D1870 + Bortezomib (first compound 0.04 µM). Besides, the relative viability amounted to 0.997 with BI-D1870 + Bortezomib (first compound 0.1265 µM); 1.13 in the test with BI-D1870 + Bortezomib (first compound 0.4 µM); 1.25 in the test with BI-D1870 + Bortezomib (first compound 1.265 µM); 0.946 in the test with BI-D1870 + Bortezomib (first compound 4 µM); 0.453 with BI-D1870 + Pemetrexed (first compound 0.04 µM); 0.447 in the test with BI-D1870 + Pemetrexed (first compound 0.1265 µM). Besides, the relative viability with BI-D1870 + Pemetrexed (first compound 0.4 µM) came to 0.476; with BI-D1870 + Pemetrexed (first compound 1.265 µM), 0.527; with BI-D1870 + Pemetrexed (first compound 4 µM), 0.413; with Zebularine + Phenformin (first compound 1 µM) it was 0.403; with Zebularine + Phenformin (first compound 3.162 µM), 0.431; in the test with Zebularine + Phenformin (first compound 10 µM), 0.35. The figures for the relative viability with Zebularine + Phenformin (first compound 31.62 µM) and with Zebularine + Phenformin (first compound 100 µM) were 0.41 and 0.406, respectively.
In the case of SK-LU-1, the relative viability turned out to be 1 with BI-D1870 + Navitoclax (first compound 0.04 µM); 1.09 in the test with BI-D1870 + Navitoclax (first compound 0.1265 µM); 0.852 with BI-D1870 + Navitoclax (first compound 0.4 µM); 0.54 in the test with BI-D1870 + Navitoclax (first compound 1.265 µM); 0.0905 in the test with BI-D1870 + Navitoclax (first compound 4 µM); 1.16 in the test with BI-D1870 + Bortezomib (first compound 0.04 µM). Moreover, the relative viability was 1.07 in the test with BI-D1870 + Bortezomib (first compound 0.1265 µM); 1.04 with BI-D1870 + Bortezomib (first compound 0.4 µM); 1.49 with BI-D1870 + Bortezomib (first compound 1.265 µM); 0.823 with BI-D1870 + Bortezomib (first compound 4 µM); 1.1 in the test with BI-D1870 + Pemetrexed (first compound 0.04 µM); 0.918 with BI-D1870 + Pemetrexed (first compound 0.1265 µM). The relative viability in the test with BI-D1870 + Pemetrexed (first compound 0.4 µM) worked out at 1.01; with BI-D1870 + Pemetrexed (first compound 1.265 µM), 0.868; in the test with BI-D1870 + Pemetrexed (first compound 4 µM), 0.366; in the test with Zebularine + Phenformin (first compound 1 µM), 0.633; in the test with Zebularine + Phenformin (first compound 3.162 µM), 0.552; in the test with Zebularine + Phenformin (first compound 10 µM) it was 0.313. The relative viability with Zebularine + Phenformin (first compound 31.62 µM) was found to be 0.493; with Zebularine + Phenformin (first compound 100 µM) it was 0.33.
As to SW 1573, the relative viability in the test with BI-D1870 + Navitoclax (first compound 0.04 µM) was 0.93; with BI-D1870 + Navitoclax (first compound 0.1265 µM), 0.81; in the test with BI-D1870 + Navitoclax (first compound 0.4 µM), 1.13; in the test with BI-D1870 + Navitoclax (first compound 1.265 µM), 0.852; in the test with BI-D1870 + Navitoclax (first compound 4 µM), 0.602; with BI-D1870 + Bortezomib (first compound 0.04 µM) it was 1.08. In addition, the relative viability with BI-D1870 + Bortezomib (first compound 0.1265 µM) was found to be 0.907; with BI-D1870 + Bortezomib (first compound 0.4 µM), 0.883; with BI-D1870 + Bortezomib (first compound 1.265 µM), 0.986; with BI-D1870 + Bortezomib (first compound 4 µM) it was 0.577; in the test with BI-D1870 + Pemetrexed (first compound 0.04 µM) it was 0.855; in the test with BI-D1870 + Pemetrexed (first compound 0.1265 µM), 0.775. Further, the relative viability with BI-D1870 + Pemetrexed (first compound 0.4 µM) came to 0.826; with BI-D1870 + Pemetrexed (first compound 1.265 µM), 0.845; with BI-D1870 + Pemetrexed (first compound 4 µM), 0.35; in the test with Zebularine + Phenformin (first compound 1 µM), 0.379; with Zebularine + Phenformin (first compound 3.162 µM), 0.404; with Zebularine + Phenformin (first compound 31.62 µM) it was 0.406. The relative viability with Zebularine + Phenformin (first compound 100 µM) stood at 0.227.
